# pIC50: −log10 of the molar value.
# Key:
# Lolium rigidum [1] = assay: Herbicidal activity against Lolium rigidum accession A13 assessed as emergence rate applied at 4 times pre-emergence recommended rate relative to untreated control; assay type: functional
# Lolium rigidum [2] = assay: Herbicidal activity against Lolium rigidum accession A12 assessed as emergence rate applied at 4 times pre-emergence recommended rate relative to untreated control; assay type: functional
# Lolium rigidum [3] = assay: Herbicidal activity against Lolium rigidum accession A11 assessed as emergence rate applied at 4 times pre-emergence recommended rate relative to untreated control; assay type: functional
# Lolium rigidum [4] = assay: Herbicidal activity against Lolium rigidum accession A10 assessed as emergence rate applied at 4 times pre-emergence recommended rate relative to untreated control; assay type: functional
# Lolium rigidum [5] = assay: Herbicidal activity against Lolium rigidum accession A04 assessed as emergence rate applied at 4 times pre-emergence recommended rate relative to untreated control; assay type: functional
# [6] = biological target: T1, Acetolactate synthase (Lolium rigidum) (UniProt A7XBP7); assay: Resistance index, ratio of I50 for acetolactate synthase […]/Leu-197 mutant in Lolium rigidum accession A18 leaves extracts to I50 for acetolactate synthase in Lolium rigidum accession A01 leaves extracts
# T1 sequence (whole entry): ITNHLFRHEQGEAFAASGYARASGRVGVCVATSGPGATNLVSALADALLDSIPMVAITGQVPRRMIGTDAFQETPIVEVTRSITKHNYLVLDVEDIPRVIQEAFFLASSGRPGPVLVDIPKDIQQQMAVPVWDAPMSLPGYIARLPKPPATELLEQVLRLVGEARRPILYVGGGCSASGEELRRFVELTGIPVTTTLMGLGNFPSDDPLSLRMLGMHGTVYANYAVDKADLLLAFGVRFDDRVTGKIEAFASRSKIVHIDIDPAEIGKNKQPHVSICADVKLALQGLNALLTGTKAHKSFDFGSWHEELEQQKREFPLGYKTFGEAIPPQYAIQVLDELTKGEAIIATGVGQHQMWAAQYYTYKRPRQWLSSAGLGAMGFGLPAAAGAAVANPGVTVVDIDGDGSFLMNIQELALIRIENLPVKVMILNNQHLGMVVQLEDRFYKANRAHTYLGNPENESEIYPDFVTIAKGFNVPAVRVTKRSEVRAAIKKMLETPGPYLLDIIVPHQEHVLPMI
# [7] = biological target: T1, Acetolactate synthase (Lolium rigidum); assay: Resistance index, ratio of I50 for acetolactate synthase Ala-197/Ala-197 mutant in Lolium rigidum accession A16 leaves extracts to I50 for acetolactate synthase in Lolium rigidum accession A01 leaves extracts
# Acetolactate synthase [8] = biological target: T2, Acetolactate synthase (Lolium rigidum, UniProt A7XBP7); assay: Inhibition of acetolactate synthase Ser-197/Ser-197 mutant in Lolium rigidum accession A21 leaves extracts by acetolactate production assay; conditions: read-out: I50
# [9] = biological target: T1, Acetolactate synthase (Lolium rigidum); assay: Resistance index, ratio of I50 for acetolactate synthase Ala-197/Ala-197 mutant in Lolium rigidum accession A06 leaves extracts to I50 for acetolactate synthase in Lolium rigidum accession A01 leaves extracts
# Acetolactate synthase [10] = biological target: T2, Acetolactate synthase; assay: Inhibition of acetolactate synthase Ala-197/Ala-197 mutant in Lolium rigidum accession A20 leaves extracts by acetolactate production assay; conditions: read-out: I50
# Acetolactate synthase [11] = biological target: T2, Acetolactate synthase; assay: Inhibition of acetolactate synthase Leu-197/Leu-197 mutant in Lolium rigidum accession A18 leaves extracts by acetolactate production assay; conditions: read-out: I50
# Acetolactate synthase [12] = biological target: T2, Acetolactate synthase; assay: Inhibition of acetolactate synthase Ala-197/Ala-197 mutant in Lolium rigidum accession A16 leaves extracts by acetolactate production assay; conditions: read-out: I50
# Acetolactate synthase [13] = biological target: T2, Acetolactate synthase; assay: Inhibition of acetolactate synthase Pro-197/Pro-197 mutant in Lolium rigidum accession A11 leaves extracts by acetolactate production assay; conditions: read-out: I50
# Lolium rigidum [14] = assay: Herbicidal activity against Lolium rigidum accession A05 assessed as emergence rate applied at 1 times pre-emergence recommended rate applied in pots where terbufos had been incorporated into the soil relative to untreated control; assay type: functional
# Lolium rigidum [15] = assay: Herbicidal activity against Lolium rigidum accession A04 assessed as emergence rate applied at 1 times pre-emergence recommended rate applied in pots where terbufos had been incorporated into the soil relative to untreated control; assay type: functional
# Lolium rigidum [16] = assay: Herbicidal activity against Lolium rigidum accession A03 assessed as emergence rate applied at 1 times pre-emergence recommended rate applied in pots where terbufos had been incorporated into the soil relative to untreated control; assay type: functional
# Lolium rigidum [17] = assay: Herbicidal activity against Lolium rigidum accession A15 assessed as emergence rate applied at 1 times pre-emergence recommended rate relative to untreated control; assay type: functional
# Lolium rigidum [18] = assay: Herbicidal activity against Lolium rigidum accession A13 assessed as emergence rate applied at 1 times pre-emergence recommended rate relative to untreated control; assay type: functional
# Acetolactate synthase [19] = biological target: T2, Acetolactate synthase; assay: Inhibition of acetolactate synthase Pro-197/Pro-197 mutant in Lolium rigidum accession A10 leaves extracts by acetolactate production assay; conditions: read-out: I50
# Acetolactate synthase [20] = biological target: T2, Acetolactate synthase; assay: Inhibition of acetolactate synthase Ala-197/Ala-197 mutant in Lolium rigidum accession A06 leaves extracts by acetolactate production assay; conditions: read-out: I50
# Acetolactate synthase [21] = biological target: T3, Acetolactate synthase (Lolium rigidum, UniProt A7XBP7); assay: Inhibition of acetolactate synthase in Lolium rigidum accession A01 leaves extracts by acetolactate production assay; conditions: read-out: I50
# T3 sequence (A7XBP7 whole entry): T1 sequence (whole entry)
# Lolium rigidum [22] = assay: Herbicidal activity against Lolium rigidum accession A12 assessed as emergence rate applied at 1 times pre-emergence recommended rate applied in pots where terbufos had been incorporated into the soil relative to untreated control; assay type: functional
# Lolium rigidum [23] = assay: Herbicidal activity against Lolium rigidum accession A11 assessed as emergence rate applied at 1 times pre-emergence recommended rate applied in pots where terbufos had been incorporated into the soil relative to untreated control; assay type: functional
# Lolium rigidum [24] = assay: Herbicidal activity against Lolium rigidum accession A10 assessed as fresh weight reduction applied at 4 times pre-emergence recommended rate relative to untreated control; assay type: functional; set-up: scale not given: the % may be the effect or the level left
# Lolium rigidum [25] = assay: Herbicidal activity against Lolium rigidum accession A01 assessed as emergence rate applied at 4 times pre-emergence recommended rate relative to untreated control; assay type: functional
# Lolium rigidum [26] = assay: Herbicidal activity against Lolium rigidum accession A02 assessed as fresh weight reduction applied at 4 times pre-emergence recommended rate relative to untreated control; assay type: functional; set-up: scale not given: the % may be the effect or the level left
# Lolium rigidum [27] = assay: Herbicidal activity against Lolium rigidum accession A15 assessed as fresh weight reduction applied at 1 times pre-emergence recommended rate applied in pots where terbufos had been incorporated into the soil relative to untreated control; assay type: functional; set-up: scale not given: the % may be the effect or the level left
# Lolium rigidum [28] = assay: Herbicidal activity against Lolium rigidum accession A11 assessed as fresh weight reduction applied at 1 times pre-emergence recommended rate applied in pots where terbufos had been incorporated into the soil relative to untreated control; assay type: functional; set-up: scale not given: the % may be the effect or the level left
# Lolium rigidum [29] = assay: Herbicidal activity against Lolium rigidum accession A04 assessed as fresh weight reduction applied at 1 times pre-emergence recommended rate applied in pots where terbufos had been incorporated into the soil relative to untreated control; assay type: functional; set-up: scale not given: the % may be the effect or the level left
# Lolium rigidum [30] = assay: Herbicidal activity against Lolium rigidum accession A12 assessed as fresh weight reduction applied at 1 times pre-emergence recommended rate relative to untreated control; assay type: functional; set-up: scale not given: the % may be the effect or the level left
# Lolium rigidum [31] = assay: Herbicidal activity against Lolium rigidum accession A10 assessed as fresh weight reduction applied at 1 times pre-emergence recommended rate relative to untreated control; assay type: functional; set-up: scale not given: the % may be the effect or the level left
# Lolium rigidum [32] = assay: Herbicidal activity against Lolium rigidum accession A09 assessed as fresh weight reduction applied at 1 times pre-emergence recommended rate relative to untreated control; assay type: functional; set-up: scale not given: the % may be the effect or the level left
# Lolium rigidum [33] = assay: Herbicidal activity against Lolium rigidum accession A04 assessed as fresh weight reduction applied at 1 times pre-emergence recommended rate relative to untreated control; assay type: functional; set-up: scale not given: the % may be the effect or the level left
# Lolium rigidum [34] = assay: Herbicidal activity against Lolium rigidum accession A01 assessed as fresh weight reduction applied at 1 times pre-emergence recommended rate relative to untreated control; assay type: functional; set-up: scale not given: the % may be the effect or the level left
# Lolium rigidum [35] = assay: Herbicidal activity against Lolium rigidum accession A15 assessed as fresh weight reduction applied at 1 times pre-emergence recommended rate relative to untreated control; assay type: functional; set-up: scale not given: the % may be the effect or the level left
structure (smiles),measurement,setting,value
COc1nc(C)nc(NC(=O)NS(=O)(=O)c2ccccc2Cl)n1 [CHLORSULFURON],Activity,Lolium rigidum [1],1%
same,Activity,Lolium rigidum [2],1%
same,Activity,Lolium rigidum [3],1%
same,Activity,Lolium rigidum [4],0%
same,Activity,Lolium rigidum [5],1%
same,Ratio,[6],54
same,Ratio,[7],257
same,pIC50,Acetolactate synthase [8],5.80
same,Ratio,[9],470
same,pIC50,Acetolactate synthase [10],5.96
same,pIC50,Acetolactate synthase [11],5.79
same,pIC50,Acetolactate synthase [12],5.11
same,pIC50,Acetolactate synthase [13],7.52
same,Activity,Lolium rigidum [14],95%
same,Activity,Lolium rigidum [15],2%
same,Activity,Lolium rigidum [16],1%
same,Activity,Lolium rigidum [17],2%
same,Activity,Lolium rigidum [18],1%
same,pIC50,Acetolactate synthase [19],7.40
same,pIC50,Acetolactate synthase [20],4.85
same,pIC50,Acetolactate synthase [21],7.52
same,Activity,Lolium rigidum [22],0%
same,Activity,Lolium rigidum [23],2%
same,Activity,Lolium rigidum [24],100%
same,Activity,Lolium rigidum [25],1%
same,Activity,Lolium rigidum [26],97%
same,Activity,Lolium rigidum [27],97%
same,Activity,Lolium rigidum [28],97%
same,Activity,Lolium rigidum [29],96%
same,Activity,Lolium rigidum [30],95%
same,Activity,Lolium rigidum [31],76%
same,Activity,Lolium rigidum [32],78%
same,Activity,Lolium rigidum [33],96%
same,Activity,Lolium rigidum [34],98%
same,Activity,Lolium rigidum [35],94%

# Reference: ChEMBL document CHEMBL3046358, “Multiple Pro-197 substitutions in the acetolactate synthase of rigid ryegrass (Lolium rigidum) and their impact on chlorsulfuron activity and plant growth” (Crop Prot, 2012)
